Here are results for eight compounds from PubChem BioAssay (NCI).

Several values for one entry are separate records, joined by “and”; a condition that tells them apart may be missing. Equal values may be shown once.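 A five-concentration, 48-hour dose response in 96-well plates underlies each endpoint, interpolated linearly between surrounding concentrations. GI50 is the concentration that inhibits growth by half. TGI: total growth inhibition.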 Where only a bound is given, the exact number is not on record here.

Among the test systems are TK-10 renal; 786-0 renal; HT29 colon; COLO 205 colon; SW-620 colon; OVCAR-8 ovarian; SF-295 CNS; SF-539 CNS; UACC-257 melanoma; CAKI-1 renal.
Holding throughout (test): growth of human tumour cells (NCI), 48 h

`O=C1c2ccccc2-n2c1nc1ccccc1c2=O`: the TGI in the assay with TK-10 renal is more than 100 µM; in the assay with 786-0 renal it was more than 100 µM; in the assay on HT29 colon, 51.2 µM; in the assay on COLO 205 colon, 27.8 µM; with SW-620 colon it was 70.1 µM; in the assay on OVCAR-8 ovarian, more than 82.4 µM. Moreover, the TGI with SF-295 CNS stood at 18.8 µM; in the assay with SF-539 CNS, 43.3 µM; in the assay on UACC-257 melanoma it was 9.65 µM; in the assay with CAKI-1 renal, 42.3 µM.

For `COc1cc(Cn2c(-c3nonc3N)nc3ccccc32)ccc1C`, the GI50 with TK-10 renal was 1.09 µM; in the assay on 786-0 renal, 0.55 µM; with HT29 colon it was 0.358 µM; in the assay with COLO 205 colon it was 0.337 µM; in the assay on SW-620 colon, 0.334 µM; with OVCAR-8 ovarian, 0.729 µM. The GI50 is 0.34 µM in the assay on SF-295 CNS, 0.226 µM in the assay with SF-539 CNS, 0.419 µM with UACC-257 melanoma and 0.477 µM in the assay with CAKI-1 renal. For the same compound, the TGI is 30 µM in the assay on TK-10 renal; 23.6 µM with 786-0 renal; 7.3 µM in the assay on HT29 colon; 1.39 µM in the assay on COLO 205 colon; more than 100 µM with SW-620 colon; more than 100 µM in the assay on OVCAR-8 ovarian. Further, the TGI in the assay on SF-295 CNS was 5.63 µM; in the assay with SF-539 CNS it was 0.663 µM; in the assay on UACC-257 melanoma, more than 100 µM; in the assay with CAKI-1 renal, more than 100 µM.

Regarding `Cn1c(=O)c2c(ncn2CN2CCN(Cn3cnc4c3c(=O)n(C)c(=O)n4C)CC2)n(C)c1=O`, the TGI with TK-10 renal, with 786-0 renal, in the assay on HT29 colon, in the assay with COLO 205 colon, with SW-620 colon and in the assay on OVCAR-8 ovarian was more than 100 µM each time. The TGI in the assay on SF-295 CNS, with SF-539 CNS, in the assay on UACC-257 melanoma and in the assay with CAKI-1 renal was more than 100 µM throughout.

As for `CC(C)[C@H]1C(=O)N[C@@H](CCCN=C(N)N)C(=O)NCC(=O)N[C@@H](CC(=O)O)C(=O)N[C@H](Cc2ccccc2)C(=O)N1C`, the GI50 in the assay on TK-10 renal was 1.43 µM; in the assay on 786-0 renal, 5.54 µM; in the assay with HT29 colon, more than 61.1 µM; with COLO 205 colon, more than 100 µM; with OVCAR-8 ovarian, 7.35 µM; with SF-295 CNS, more than 82.7 µM. Also, the GI50 in the assay on SF-539 CNS is more than 100 µM; with UACC-257 melanoma it was more than 27.9 µM; with CAKI-1 renal it was more than 28.7 µM. The TGI in the assay with TK-10 renal is 4.06 µM; in the assay on 786-0 renal, more than 100 µM; in the assay with HT29 colon, more than 100 µM; in the assay on COLO 205 colon, more than 100 µM; with SW-620 colon, more than 100 µM; in the assay with OVCAR-8 ovarian, more than 100 µM. Moreover, the TGI in the assay on SF-295 CNS, in the assay with SF-539 CNS, in the assay on UACC-257 melanoma and in the assay on CAKI-1 renal was more than 100 µM throughout.

With `CCCCCCN(CCCCCC)CC(O)c1ccc2c3c(cccc13)CC2` (stereo not given), the GI50 was 10.7 µM in the assay with TK-10 renal; 6.15 µM with 786-0 renal; 1.18 µM with HT29 colon; 5.56 µM in the assay with COLO 205 colon; 3.17 µM with SW-620 colon; 13.1 µM in the assay on OVCAR-8 ovarian. For the same compound, the GI50 in the assay on SF-295 CNS is 1.17 µM; with SF-539 CNS, 3.83 µM; in the assay with UACC-257 melanoma, 6.97 µM; in the assay with CAKI-1 renal, 1.96 µM. The TGI in the assay with TK-10 renal was found to be 23.2 µM; in the assay with 786-0 renal it was 20.2 µM; with HT29 colon it was 13.2 µM; in the assay with COLO 205 colon, 19.8 µM; with SW-620 colon it was 14.9 µM; with OVCAR-8 ovarian it was 29.4 µM. Further, the TGI with SF-295 CNS was determined as 12 µM; in the assay with SF-539 CNS, 15.2 µM; in the assay with UACC-257 melanoma it was 22.6 µM; in the assay on CAKI-1 renal, 9.35 µM.

Take `C/C(=N\NC(N)=S)c1nc2ccc(Cl)cc2[nH]1`: the GI50 in the assay on TK-10 renal was 2.6 µM; with 786-0 renal, 1.59 µM; with HT29 colon, 2.32 µM; in the assay with COLO 205 colon, 2.17 µM; in the assay with SW-620 colon, 2.96 µM; with OVCAR-8 ovarian it was 2.57 µM. The GI50 with SF-295 CNS is 1.33 µM; in the assay with SF-539 CNS, 2.45 µM; in the assay on UACC-257 melanoma it was 5.05 µM; in the assay on CAKI-1 renal, 0.287 µM. The TGI was 20.7 µM in the assay with TK-10 renal; 7.96 µM with 786-0 renal; 14 µM in the assay on HT29 colon; 10.1 µM in the assay on COLO 205 colon; more than 50 µM in the assay on SW-620 colon; 15.5 µM in the assay with OVCAR-8 ovarian. Moreover, the TGI in the assay on SF-295 CNS is 6.33 µM; in the assay on SF-539 CNS it was 9.7 µM; in the assay on UACC-257 melanoma, more than 50 µM; with CAKI-1 renal, 1.74 µM.

Take `CCN(CC)CCNc1n[n+]([O-])c2ccccc2[n+]1[O-]`: the TGI in the assay on TK-10 renal was > 68.5 µM and 41.8 µM; in the assay on 786-0 renal it was 64.5 µM and 21 µM; in the assay on HT29 colon, 39.2 µM and 42.7 µM; with COLO 205 colon, 19.9 µM and 26 µM; with SW-620 colon it was 82 µM and 55.9 µM; in the assay with OVCAR-8 ovarian, 31.1 µM and 27 µM. Also, the TGI with SF-295 CNS is 39.5 µM and 23.9 µM; in the assay on SF-539 CNS, 25.7 µM and 42.9 µM; in the assay with UACC-257 melanoma it was 18.3 µM and 20.4 µM. Moreover, the GI50 was 8.39 µM and 3.54 µM in the assay on UACC-257 melanoma; 2.89 µM and 6.81 µM with CAKI-1 renal.

Turning to `COc1ccc(CN2c3ccccc3CCc3ccccc32)cc1F`, the GI50 is 0.611 µM in the assay on TK-10 renal; 0.572 µM in the assay on 786-0 renal; 0.32 µM with HT29 colon; 0.335 µM in the assay on COLO 205 colon; 0.386 µM in the assay on SW-620 colon; 0.88 µM in the assay with OVCAR-8 ovarian. The GI50 in the assay with SF-295 CNS was 0.333 µM; with SF-539 CNS, 0.287 µM; in the assay with UACC-257 melanoma, more than 100 µM; in the assay with CAKI-1 renal it was 0.549 µM. Also, the TGI was more than 100 µM in the assay on TK-10 renal; more than 100 µM in the assay on 786-0 renal; 1.9 µM in the assay with HT29 colon; 1.39 µM with COLO 205 colon; more than 100 µM with SW-620 colon; more than 100 µM in the assay on OVCAR-8 ovarian. The TGI is more than 100 µM in the assay with SF-295 CNS, 0.958 µM in the assay on SF-539 CNS, more than 100 µM in the assay with UACC-257 melanoma and more than 100 µM with CAKI-1 renal.
